Type in all cases: cell-based, human
Assay [1] deals with 22Rv1 cells. Briefly: Cell growth and viability (neutral red / sulforhodamine B) and morphology. The settings on record: for IC50: 72 h, read-out: CI50 (the source's name). The procedure: (§1) Each product (1 to 5) was applied for 1 to 72 hours, at various concentrations. The number of cells was compared with a control, namely cells cultured in the absence of the test compound.
(§2) The human prostate carcinoma cells DU145 and 22Rv1 were supplied by the American Type Culture Collection (ATCC, Rockville, Md.). The DU145 cells originate from a cerebral metastasic site and are not sensitive to androgens. The 22Rv1 cells originate from a prostate carcinoma and are sensitive to androgens. The cells were maintained in the form of a monolayer culture according to the usual techniques, in […] flasks (Corning), at 37° C., in an atmosphere containing 5% CO2 and at 95% humidity, in an RPMI-1640 medium free of phenol red and supplemented with 10% of heat-inactivated fetal calf serum and 1% of L-glutamine.
(§3) Five products were tested for this study and were stored protected from light, at +4° C. The β-sitosterol (product 1), obtained from Sigma Chemicals, was first dissolved in absolute ethanol, up to a final concentration of 24.1 mM. Product 2, supplied by Barry Callebaut, France, is a defatted cocoa extract containing 35.5% polyphenols and 0.081% β-sitosterol. Product 3 was reconstituted from products 1 and 2 and contained 35.5% polyphenols and 0.72% β-sitosterol. Products 4 and 5 were manufactured by Barry Callebaut, France. The composition of product 4 is unknown, and contains no β-sitosterol. Product 5 contains 35.27% polyphenols and 0.72% β-sitosterol. Products 2, 3, 4 and 5 were first dissolved in whole medium. As regards products 2, 4 and 5, the total polyphenols of the cocoa extracts originate from different countries.
(§4) Just before use, the final concentrations of products (table 1) used are prepared for the various experiments by means of stock solutions, by diluting the stock solution in whole medium. 64.2 μM of β-sitosterol is the maximum dose used in this solubility range and in the physiological range (4 to 70 μM). The absolute ethanol is at a constant concentration of 0.26% in the solvent-based control, in the negative control and in the 8 test concentrations. The ratios of the β-sitosterol and of the polyphenols for products 2, 3 and 5 are as follows: • Product 2:2:1000 • Product 3:2:100 • Product 5:2:100
(§5) The cells were inoculated on 96-well plates at an initial density of 15 000 cells/well for DU145, at an initial density of 30 000 cells/well for 22Rv1 and at an initial density of 25 000 cells/well for RWEP-1, with 200 μL of medium per well. The cell density was optimized as a function of the time required to double the population of cells, in order to obtain a significant measurement of the Optical Density (OD) and to be able to compare the various cells lines. After 24 hours, in order to ensure uniform fixing of the cells from the start of the experiments, the products were added to the cell cultures at various concentrations and at various times. After incubation with the products, the growth and viability of the cells was measured using neutral red (NR) and sulforhodamine B (SRB) combined (In Cytotox, Vandoeuvre, France). The absorption of the vital stain NR was used by the lysosomes/endosomes and by the vacuoles of the live cells as a quantitative indication of the number and viability of the cells after treatment with a chemical test. The anionic stain SRB made it possible to quantify the viable cells via measurement of the protein content of the cells.
(§6) The cytotoxicity was evaluated 1, 3, 6, 24, 48 and 72 hours after incubating the 22Rv1, RWEP-1 and DU145 cells with the products. The cells were washed with 200 μl of washing solution in order to remove the culture medium supplemented with the products. 200 μL of neutral red base medium was added and incubated with the cells at 37° C. for 3 hours. The neutral red base medium was then removed and the cells were washed twice with phosphate-buffered physiological saline (PBS). The cells were fixed for 1 minute with 200 μL of fixing solution. […]

The subject of assay [2] is DU145 cells. Described as above. The procedure: as §1, §2, §3, §4, §5, §6
For assay [3], the system named is coculture of 22Rv1 and RWEP-1 cells. Briefly: Anti-galectin 8 immunolabeling of treated coculture. The conditions noted are these: medium M3, 2.5×10^−4% and 1.2×10^−4%. The procedure:
As a result, an anti-galectin 8 human monoclonal antibody (R&D Systems, Ref: MAB1305) was selected to specifically fluorescence-label the human prostate tumor cell line.
The healthy and tumoral cells were inoculated in coculture, at a rate of 30 000 cells per well for each cell line, in the selected medium for obtaining uniform and specific labeling of the tumoral cells.
After 24 hours in an incubator at 37° C. and 5% CO2 of saturated humidity, the coculture was incubated in the presence of β-sitosterol at two concentrations and of CPE also at two concentrations.
At the end of the incubation time with the products, the cell lawns were fixed in alcohol/acetic acid and then labeled with the anti-galectin 8 human monoclonal antibody for 1 hour. […] After intensive washing with PBS, the labeled cell lawns were observed using a Nikon DXM1200F camera driven by LUCIA 6.0 software. All the images were taken under the same conditions and with identical camera settings.
For the experiment, in order to improve the intensity of this immunolabeling and for better visual rendering quality, the concentration of the anti-galectin 8 primary antibody was increased from 1/50th to 1/20th. Furthermore, this primary antibody was incubated overnight at +4° C. for better fixing of the antibody and thus for better labeling intensity. […]

Where two headings read alike, the source gives them in different places.

For the compound `CC[C@H](CC[C@@H](C)[C@H]1CC[C@H]2[C@@H]3CC=C4C[C@@H](O)CC[C@]4(C)[C@H]3CC[C@]12C)C(C)C` [β-sitosterol], the “Inhibition of lysosomial activity or protein synthesis” value in assay [1] (22Rv1, 1, 3 and 6 hours of treatment) is on record as “did not inhibit the lysosomial activity or protein synthesis”. Besides, the Morphological alterations entry is “No significant difference in terms of density and morphology” in assay [1] (22Rv1, maximum concentration, up to 48 hours); “No significant difference was observed in terms of density and morphology” in assay [2] (DU145, maximum concentration, up to 48 hours). Also, the max. inhibition in assay [1] (24 h, 22RV1, NR) was determined as 49%; in assay [1] (24 h, 22RV1, SRB), 49%; in assay [1] (48 h, 22RV1, NR), 36%; in assay [1] (48 h, 22RV1, SRB), 47%; in assay [2] (24 h, DU145, NR), 11%; in assay [2] (24 h, DU145, SRB) it was 42%. The max. inhibition in assay [2] (48 h, DU145, NR) turned out to be 21%; in assay [2] (48 h, DU145, SRB), 44%; in assay [2] (72 h, DU145, NR), 42%; in assay [2] (72 h, DU145, SRB), 40%. The IC50 is 17.8 µM in assay [1] (22RV1, NR); 34 µM in assay [1] (22RV1, SRB); “did not induce an IC50” in assay [2] (DU145, short-term and long-term treatments). For the same compound, in assay [3], the “Area of labeling (anti-galectin 8 and Hoechst)” value was “equivalent to that of the untreated proliferation control”.

The values above are taken from patent US8435576B2, “Use of cocoa polyphenols for treating a prostate hyperplasia, a specific cocoa extract and applications” (Barry Callebaut AG, priority 2005, dated 2013).
